Laboratory results reported in PubChem BioAssay (NCI).
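Method: 48-hour compound exposure of cells in 96-well plates, five concentrations, linear interpolation of endpoints. The concentration for full growth arrest is given as TGI.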

Tests used:
Assay in all cases: NCI anticancer screen, dose series, 48 h
COLO 205 colon = system: COLO 205 colon
A549 NSCLC = system: A549 NSCLC
OVCAR-4 ovarian = system: OVCAR-4 ovarian
SN12C renal = system: SN12C renal
NCI-H23 lung = system: NCI-H23 lung
UACC-257 melanoma = system: UACC-257 melanoma
SF-539 CNS = system: SF-539 CNS
RXF 393 renal = system: RXF 393 renal
HCC-2998 colon = system: HCC-2998 colon
786-0 renal = system: 786-0 renal

SMILES | TGI (COLO 205 colon) [µM] | TGI (A549 NSCLC) [µM] | TGI (OVCAR-4 ovarian) [µM] | TGI (SN12C renal) [µM] | TGI (NCI-H23 lung) [µM] | TGI (UACC-257 melanoma) [µM] | TGI (SF-539 CNS) [µM] | TGI (RXF 393 renal) [µM] | TGI (HCC-2998 colon) [µM] | TGI (786-0 renal) [µM]
O=C1c2ccccc2-c2nc(/C=C/c3ccccc3)cc3c2c1nc1ccccc13 | 69.8 | > 100 | > 100 | > 100 | 28.9 | > 100 | > 100 | > 100 | 64.6 | > 100
CSc1nc2c(=O)n(-c3ccccc3)c(=S)n(-c3ccccc3)c2s1 | > 100 | > 100 | > 100 | > 100 | > 100 | > 100 | > 100 | 94.4 | > 100 | > 100
Clc1nc(Cl)c(CBr)c(Cl)n1 | 20.9 | 35.2 | 19.7 | 6.79 | 31.2 | 33.9 | 7.76 | 21.4 | 30.8 | 5.18
CC1(C)CC2(C)CC1CC2NC(=O)CCN1CCOCC1 (stereo not drawn) | > 100 | > 100 | > 100 | > 100 | > 100 | > 100 | > 100 | > 100 | > 100 | > 100
Clc1ncc(Cl)c(Cl)n1 | 3.3 | 28.8 | 3.53 | 5.91 | 42.3 | 14.3 | 24.6 | 5.46 | 15.1 | 7.49
O=C(N/N=C\c1ccccc1)Nc1cccc2ccccc12 | > 100 | > 100 | > 100 | 45.9 | > 100 | > 100 | > 100 | > 100 | > 100 | 30.1
O=C1ON=C2C3CC4CC12CC1(C3)C(=O)ON=C41 | > 100 | > 100 | > 100 | > 100 | > 100 | > 100 | > 100 | > 100 | > 100 | > 100
CS(=O)(=O)OCCCOS(C)(=O)=O | > 100 | > 100 | > 100 | > 100 | > 100 | > 100 | > 100 | > 100 | > 100 | > 100
C(=C\c1cc(-c2ccc3ccccc3n2)nc2ccc3ccccc3c12)/c1ccc2ccccc2n1 | > 100 | > 100 | > 100 | > 100 |  | > 100 | > 100 | > 100 | > 100 | > 100
CCOC(=O)Cn1c(=O)c2cc(-c3ccccc3)cc3c(Cl)nc4c(OC)c(OC)cc1c4c32 | > 100 | > 100 | > 77.1 | > 100 | 36.2 | 38.9 | > 100 | 30.7 | 34.5 | > 100
Cc1nc(C(N)=S)sc1C(=O)C/C(=N/N)C(=O)Nc1ccc(Cl)cc1 |  | > 100 | > 100 | > 100 | > 100 | > 100 | > 100 | > 100 | > 100 | > 100
